# Results taken from BindingDB's records for PubMed 14633714 (Abbott Laboratories, 2003).
# Target: Methionine aminopeptidase 1 (Homo sapiens, UniProt P53582)
# Assay: MetAP Enzyme Activity Assay
# Conditions: pH 7.4; 22 °C
# Protocol: A coupled enzyme chromogenic assay was developed to measure methionine aminopeptidase activity by monitoring the production of free methionine with L-amino acid oxidase and horseradish peroxidase. Assays were performed in 96-well microtiter plates. The reactions were carried out at room temperature, and absorbance at 450 nm (A450) was measured every 20 s over a period of 20 min using an automatic plate reader (Molecular Devices, CA). The rate in mOD/min, calculated for each well, was converted to nM methionine releases per minute per nM MetAP in the reaction.
row,SMILES,IC50
1,CC(C)CSC[C@@H](N)[C@H](O)C(=O)N[C@@H](C)c1cccc2ccccc12,2.2 µM
2,CC(C)SCC[C@@H](N)[C@H](O)C(=O)N[C@@H](C)c1cccc2ccccc12,12 µM
3,CC(C)CSC[C@@H](N)[C@H](O)C(=O)NNC(=O)c1cccc(Cl)c1,8.1 µM
4,"CC(C)SCC[C@@H](N)[C@H](O)C(=O)NNC(=O)c1cccc(Cl)c1 [N'-[(2S,3R)-3-amino-2-hydroxy-5-(propan-2-ylsulfanyl)pentanoyl]-3-chlorobenzohydrazide]",57 µM
5,"CCSCC[C@@H](N)[C@H](O)C(=O)NNC(=O)c1cccc(Cl)c1 [N'-[(2S,3R)-3-amino-5-(ethylsulfanyl)-2-hydroxypentanoyl]-3-chlorobenzohydrazide]",20 µM
6,"CCSCC[C@@H](N)[C@H](O)C(=O)N[C@@H](C)c1cccc2ccccc12 [bestatin-type inhibitor, 4]",0.37 µM
7,"CCOC(=O)[C@H](C)NC(=O)[C@@H](O)[C@H](N)CCSC [ethyl (2S)-2-[(2S,3R)-3-amino-2-hydroxy-5-(methylsulfanyl)pentanamido]propanoate]",63 µM
8,"CCOC(=O)[C@H](C)NC(=O)[C@@H](O)[C@H](N)CCSCC [ethyl (2S)-2-[(2S,3R)-3-amino-5-(ethylsulfanyl)-2-hydroxypentanamido]propanoate]",69 µM
9,"CCOC(=O)[C@H](C)NC(=O)[C@@H](O)[C@H](N)CSCC(C)C [ethyl (2S)-2-[(2S,3S)-3-amino-2-hydroxy-4-[(2-methylpropyl)sulfanyl]butanamido]propanoate]",66 µM
